In PubChem BioAssay (NCI):
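Values below derive from 48-hour exposures of cells grown in 96-well plates, with endpoints linearly interpolated between the two concentrations bracketing the appropriate inhibition level. Here, GI50 denotes the concentration required for 50% inhibition of growth. TGI denotes the concentration required for complete inhibition of growth.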

Experiments:
Test in all cases: NCI-60 cell line screen, 48 h
[1] = system: 786-0 renal
[2] = system: A498 renal
[3] = system: A549 NSCLC
[4] = system: ACHN renal
[5] = system: BT-549 breast
[6] = system: CAKI-1 renal
[7] = system: CCRF-CEM leukemia
[8] = system: COLO 205 colon
[9] = system: DU-145 prostate
[10] = system: HCC-2998 colon
[11] = system: HCT-116 colon
[12] = system: HCT-15 colon
[13] = system: HL-60(TB) leukemia
[14] = system: HOP-62 NSCLC
[15] = system: HOP-92 NSCLC
[16] = system: HS 578T breast
[17] = system: HT29 colon
[18] = system: IGROV1 ovarian
[19] = system: K-562 leukemia
[20] = system: KM12 colon
[21] = system: LOX IMVI melanoma
[22] = system: M14 melanoma
[23] = system: MALME-3M melanoma
[24] = system: MCF7 breast
[25] = system: MDA-MB-231 breast
[26] = system: MDA-MB-435
[27] = system: MOLT-4 leukemia
[28] = system: NCI-H23 lung
[29] = system: NCI-H460 lung
[30] = system: NCI-H522 lung
[31] = system: NCI/ADR-RES ovarian
[32] = system: OVCAR-3 ovarian
[33] = system: OVCAR-4 ovarian
[34] = system: OVCAR-5 ovarian
[35] = system: OVCAR-8 ovarian
[36] = system: PC-3 prostate
[37] = system: RPMI-8226 leukemia
[38] = system: RXF 393 renal
[39] = system: SF-268 CNS
[40] = system: SF-295 CNS
[41] = system: SF-539 CNS
[42] = system: SK-MEL-2 melanoma
[43] = system: SK-MEL-28 melanoma
[44] = system: SK-MEL-5 melanoma
[45] = system: SK-OV-3 ovarian
[46] = system: SN12C renal
[47] = system: SNB-19 CNS
[48] = system: SNB-75 CNS
[49] = system: SR leukemia
[50] = system: SW-620 colon
[51] = system: T-47D breast
[52] = system: TK-10 renal
[53] = system: U251 CNS
[54] = system: UACC-257 melanoma
[55] = system: UACC-62 melanoma
[56] = system: UO-31 renal

SMILES: Cc1cccc(-n2cnc3cc(C(=O)N4CCCCC4)ccc32)c1
- GI50 [1]: > 100 µM
- TGI [1]: > 100 µM
- GI50 [2]: 51.3 µM
- TGI [2]: > 100 µM
- GI50 [3]: 85.5 µM
- TGI [3]: > 100 µM
- GI50 [4]: > 100 µM
- TGI [4]: > 100 µM
- GI50 [5]: 97 µM
- TGI [5]: > 100 µM
- GI50 [6]: > 100 µM
- TGI [6]: > 100 µM
- GI50 [7]: > 100 µM
- TGI [7]: > 100 µM
- GI50 [8]: 49.9 µM
- TGI [8]: > 100 µM
- GI50 [9]: > 100 µM
- TGI [9]: > 100 µM
- GI50 [10]: > 100 µM
- TGI [10]: > 100 µM
- GI50 [11]: > 100 µM
- TGI [11]: > 100 µM
- GI50 [12]: 56.6 µM
- TGI [12]: > 100 µM
- GI50 [13]: > 100 µM
- TGI [13]: > 100 µM
- GI50 [14]: > 100 µM
- TGI [14]: > 100 µM
- GI50 [15]: 41.4 µM
- TGI [15]: > 100 µM
- GI50 [16]: 72.7 µM
- TGI [16]: > 100 µM
- GI50 [17]: > 100 µM
- TGI [17]: > 100 µM
- GI50 [18]: > 100 µM
- TGI [18]: > 100 µM
- GI50 [19]: 59.9 µM
- TGI [19]: > 100 µM
- GI50 [20]: > 100 µM
- TGI [20]: > 100 µM
- GI50 [21]: > 100 µM
- TGI [21]: > 100 µM
- GI50 [22]: > 100 µM
- TGI [22]: > 100 µM
- GI50 [23]: > 100 µM
- TGI [23]: > 100 µM
- GI50 [24]: 48.4 µM
- TGI [24]: > 100 µM
- GI50 [25]: 92.2 µM
- TGI [25]: > 100 µM
- GI50 [26]: > 100 µM
- TGI [26]: > 100 µM
- GI50 [27]: > 100 µM
- TGI [27]: > 100 µM
- GI50 [28]: > 100 µM
- TGI [28]: > 100 µM
- GI50 [29]: > 100 µM
- TGI [29]: > 100 µM
- GI50 [30]: > 100 µM
- TGI [30]: > 100 µM
- GI50 [31]: 37.9 µM
- TGI [31]: > 100 µM
- GI50 [32]: 54.9 µM
- TGI [32]: > 100 µM
- GI50 [33]: 46 µM
- TGI [33]: > 100 µM
- GI50 [34]: > 100 µM
- TGI [34]: > 100 µM
- GI50 [35]: 91.9 µM
- TGI [35]: > 100 µM
- GI50 [36]: > 100 µM
- TGI [36]: > 100 µM
- GI50 [37]: > 100 µM
- TGI [37]: > 100 µM
- GI50 [38]: 23.9 µM
- TGI [38]: > 100 µM
- GI50 [39]: > 100 µM
- TGI [39]: > 100 µM
- GI50 [40]: 65.1 µM
- TGI [40]: > 100 µM
- GI50 [41]: 85.5 µM
- TGI [41]: > 100 µM
- GI50 [42]: > 100 µM
- TGI [42]: > 100 µM
- GI50 [43]: 59.1 µM
- TGI [43]: > 100 µM
- GI50 [44]: 20 µM
- TGI [44]: 53.1 µM
- GI50 [45]: > 100 µM
- TGI [45]: > 100 µM
- GI50 [46]: > 100 µM
- TGI [46]: > 100 µM
- GI50 [47]: 48.8 µM
- TGI [47]: > 100 µM
- GI50 [48]: 30 µM
- TGI [48]: > 100 µM
- GI50 [49]: > 100 µM
- TGI [49]: > 100 µM
- GI50 [50]: > 100 µM
- TGI [50]: > 100 µM
- GI50 [51]: 28 µM
- TGI [51]: 93.1 µM
- GI50 [52]: > 100 µM
- TGI [52]: > 100 µM
- GI50 [53]: 62.6 µM
- TGI [53]: > 100 µM
- GI50 [54]: > 100 µM
- TGI [54]: > 100 µM
- GI50 [55]: 48 µM
- TGI [55]: > 100 µM
- GI50 [56]: 29.8 µM
- TGI [56]: > 100 µM
